According to ChEMBL document CHEMBL1629541, “Synthesis and structure-activity relationships of aza- and diazabiphenyl analogues of the antitubercular drug (6S)-2-nitro-6-{[4-(trifluoromethoxy)benzyl]oxy}-6,7-dihydro-5H-imidazo[2,1-b][1,3]oxazine (PA-824)” (J Med Chem, 2010):
Values after ≈ are worked out from the molar mass of the structure shown.

Key:
[1] = AUC (0-infinity) in CD1 mouse plasma at 40 mg/kg, po administered as single dose; type: ADME, organism-based; parameters: time infinity, dose 40 mg/kg, route oral
[2] = Cmax in CD1 mouse plasma at 40 mg/kg, po administered as single dose; type: ADME, organism-based; parameters: dose 40 mg/kg, route oral
[3] = Half life in CD1 mouse plasma at 40 mg/kg, po administered as single dose; type: ADME, organism-based; parameters: dose 40 mg/kg, route oral
[4] = AUC (0-infinity) in CD1 mouse lung at 40 mg/kg, po administered as single dose; type: ADME, organism-based; parameters: time infinity, dose 40 mg/kg, route oral
[5] = Cmax in CD1 mouse lung at 40 mg/kg, po administered as single dose; type: ADME, organism-based; parameters: dose 40 mg/kg, route oral
[6] = Half life in CD1 mouse lung at 40 mg/kg, po administered as single dose; type: ADME, organism-based; parameters: dose 40 mg/kg, route oral
[7] = Cmax in Sprague-Dawley rat at 5 mg/kg, iv administered as single dose; type: ADME, organism-based; parameters: dose 5 mg/kg, route intravenous; details: in vivo
[8] = Tmax in Sprague-Dawley rat at 5 mg/kg, iv administered as single dose; type: ADME, organism-based; parameters: dose 5 mg/kg, route intravenous; details: in vivo
[9] = Half life in Sprague-Dawley rat at 5 mg/kg, iv administered as single dose; type: ADME, organism-based; parameters: dose 5 mg/kg, route intravenous; details: in vivo
[10] = AUClast in Sprague-Dawley rat at 5 mg/kg, iv administered as single dose; type: ADME, organism-based; parameters: time 0 - last, dose 5 mg/kg, route intravenous; details: plasma
[11] = Cmax in Sprague-Dawley rat at 20 mg/kg, po administered as single dose; type: ADME, organism-based; parameters: dose 20 mg/kg, route oral; details: in vivo
[12] = Tmax in Sprague-Dawley rat at 20 mg/kg, po administered as single dose; type: ADME, organism-based; parameters: dose 20 mg/kg, route oral; details: in vivo
[13] = AUClast in Sprague-Dawley rat at 20 mg/kg, po administered as single dose; type: ADME, organism-based; parameters: time 0 - last, dose 20 mg/kg, route oral; details: plasma
[14] = Oral bioavailability in Sprague-Dawley rat at 20 mg/kg, po administered as single dose; type: ADME, organism-based; details: in vivo
[15] = tested on: Mycobacterium tuberculosis; assay: microbe, parasite or virus in culture; details: H37Rv
[16] = tested on: Mycobacterium tuberculosis; assay: microbe, parasite or virus in culture; details: H37Rv; remark: listed apart in the source
Description: Antitubercular activity against Mycobacterium tuberculosis H37Rv by LORA method

[17] = Ratio of AUC (0-infinity) in lung to AUC (0-infinity) in plasma of CD1 mouse at 40 mg/kg, po administered as single dose; type: ADME, organism-based; parameters: dose 40 mg/kg, route oral
[18] = Thermodynamic solubility in aqueous buffer at pH 1 at 20 degC by HPLC; type: physicochemical; details: for solubility thermodynamic: aqueous buffer
[19] = Thermodynamic solubility in aqueous buffer at pH 7.4 at 20 degC by HPLC; type: physicochemical
physchem [20] = details: water, pH 7
Description: Solubility of the compound in water at pH 7.0 by HPLC

physchem [21] = details: water, pH 1
Description: Solubility of the compound in water at pH 1.0 by HPLC

in vitro [22] = details: human, liver microsomes
Description: Metabolic stability in human liver microsomes assessed as compound remaining after 1 hr

in vitro [23] = details: CD1, mouse, liver microsomes
Description: Metabolic stability in CD1 mouse liver microsomes assessed as compound remaining after 1 hr

[24] = Cmax in Sprague-Dawley rat at 1 mg/kg, iv administered as single dose; type: ADME, organism-based; parameters: dose 1 mg/kg, route intravenous; details: in vivo
[25] = Tmax in Sprague-Dawley rat at 1 mg/kg, iv administered as single dose; type: ADME, organism-based; parameters: dose 1 mg/kg, route intravenous; details: in vivo
[26] = Half life in Sprague-Dawley rat at 1 mg/kg, iv administered as single dose; type: ADME, organism-based; parameters: dose 1 mg/kg, route intravenous; details: in vivo
[27] = AUClast in Sprague-Dawley rat at 1 mg/kg, iv administered as single dose; type: ADME, organism-based; parameters: time 0 - last, dose 1 mg/kg, route intravenous; details: plasma
[28] = Metabolic stability in human liver microsomes after 1 hr at 37 degC; type: ADME, Microsome; details: read-out: Stability

Structure (SMILES): O=[N+]([O-])c1cn2c(n1)OC[C@@H](OCc1ccc(-c3ccc(OC(F)(F)F)cc3)cn1)C2
- AUC(0-inf) [1]: 418 µg·h/mL
- Cmax [2]: 26000 ng/mL
- half-life [3]: 5.4 h
- AUC(0-inf) [4]: 427 µg·h/mL
- Cmax [5]: 35000 ng/mL
- half-life [6]: 8.2 h
- Cmax [7]: 8700 ng/mL
- Tmax [8]: 0.083 h
- half-life [9]: > 6 h
- AUC(0-t) [10]: 35.9 µg·h/mL
- Cmax [11]: 16000 ng/mL
- Tmax [12]: 6 h
- AUC(0-t) [13]: 66.7 µg·h/mL
- bioavailability [14]: 46%
- MIC [15]: 0.065 µM (≈ 0.0284 µg/mL)
- MIC [16]: 3.7 µM (≈ 1.61 µg/mL)

Structure (SMILES): O=[N+]([O-])c1cn2c(n1)OC[C@@H](OCc1ccc(-c3ccc(OC(F)(F)F)c(F)c3)cn1)C2
- AUC(0-inf) [1]: 137 µg·h/mL
- Cmax [2]: 7600 ng/mL
- half-life [3]: 8.4 h
- AUC(0-inf) [4]: 155 µg·h/mL
- Cmax [5]: 9100 ng/mL
- half-life [6]: 7.9 h
- Kp [17]: 1.1
- solubility thermodynamic [18]: 67 µg/mL (≈ 147 µM)
- solubility thermodynamic [19]: 1.5 µg/mL (≈ 3.3 µM)
- solubility (physchem [20]): 30 µg/mL (≈ 66 µM)
- solubility (physchem [21]): 334 µg/mL (≈ 735 µM)
- remaining at 1 h (in vitro [22]): 97%
- remaining at 1 h (in vitro [23]): 86%
- MIC [15]: 0.05 µM (≈ 0.0227 µg/mL)
- MIC [16]: 1.3 µM (≈ 0.591 µg/mL)

Structure (SMILES): O=[N+]([O-])c1cn2c(n1)OC[C@@H](OCc1ccc(-c3ccc(OC(F)(F)F)c(F)c3)nc1)C2
- AUC(0-inf) [1]: 175 µg·h/mL
- Cmax [2]: 7000 ng/mL
- half-life [3]: 14 h
- AUC(0-inf) [4]: 251 µg·h/mL
- Cmax [5]: 12000 ng/mL
- half-life [6]: 12 h
- Kp [17]: 1.4
- Cmax [24]: 530 ng/mL
- Tmax [25]: 4.98 min
- half-life [26]: 33 h
- AUC(0-t) [27]: 6.97 µg·h/mL
- Cmax [11]: 7200 ng/mL
- Tmax [12]: 6 h
- AUC(0-t) [13]: 129 µg·h/mL
- bioavailability [14]: 93%
- solubility thermodynamic [18]: 34 µg/mL (≈ 74.8 µM)
- solubility thermodynamic [19]: 0.32 µg/mL (≈ 0.704 µM)
- solubility (physchem [20]): 3 µg/mL (≈ 6.6 µM)
- solubility (physchem [21]): 71 µg/mL (≈ 156 µM)
- remaining at 1 h (in vitro [22]): 100%
- remaining at 1 h (in vitro [23]): 90%
- MIC [15]: 0.025 µM (≈ 0.0114 µg/mL)
- MIC [16]: 0.93 µM (≈ 0.423 µg/mL)

Structure (SMILES): O=[N+]([O-])c1cn2c(n1)OC[C@@H](OCc1cnc(-c3ccc(OC(F)(F)F)cc3)cn1)C2
- AUC(0-inf) [1]: 152 µg·h/mL
- Cmax [2]: 9600 ng/mL
- half-life [3]: 7.2 h
- AUC(0-inf) [4]: > 324 µg·h/mL
- Cmax [5]: 23000 ng/mL
- half-life [6]: > 8 h
- Cmax [7]: 3900 ng/mL
- Tmax [8]: 0.167 h
- half-life [9]: 24 h
- AUC(0-t) [10]: 16.3 µg·h/mL
- Cmax [11]: 7000 ng/mL
- Tmax [12]: 5 h
- AUC(0-t) [13]: 29.4 µg·h/mL
- bioavailability [14]: 45%
- solubility thermodynamic [18]: 0.44 µg/mL (≈ 1.01 µM)
- solubility thermodynamic [19]: 0.44 µg/mL (≈ 1.01 µM)
- solubility (physchem [21]): 2.8 µg/mL (≈ 6.4 µM)
- remaining at 1 h (in vitro [22]): 98%
- MIC [15]: 0.023 µM (≈ 0.0101 µg/mL)
- MIC [16]: 1 µM (≈ 0.437 µg/mL)

Structure (SMILES): O=[N+]([O-])c1cn2c(n1)OC[C@@H](OCc1cnc(-c3ccc(OC(F)(F)F)cc3)nc1)C2
- AUC(0-inf) [1]: 43 µg·h/mL
- Cmax [2]: 1200 ng/mL
- half-life [3]: 23 h
- AUC(0-inf) [4]: 131 µg·h/mL
- Cmax [5]: 4000 ng/mL
- half-life [6]: 18 h
- solubility thermodynamic [18]: 1.5 µg/mL (≈ 3.43 µM)
- solubility thermodynamic [19]: 1.2 µg/mL (≈ 2.74 µM)
- solubility (physchem [21]): 3 µg/mL (≈ 6.86 µM)
- remaining at 1 h (in vitro [22]): 96%
- remaining at 1 h (in vitro [23]): 87%
- MIC [15]: 0.027 µM (≈ 0.0118 µg/mL)
- MIC [16]: 1.8 µM (≈ 0.787 µg/mL)

Structure (SMILES): O=[N+]([O-])c1cn2c(n1)OC[C@@H](OCc1ccc(-c3ccc(C(F)(F)F)cn3)cc1)C2
- AUC(0-inf) [1]: 20 µg·h/mL
- Cmax [2]: 1100 ng/mL
- half-life [3]: 8.8 h
- AUC(0-inf) [4]: 67 µg·h/mL
- Cmax [5]: 34000 ng/mL
- half-life [6]: 10 h
- Kp [17]: 3.4
- solubility thermodynamic [18]: 0.84 µg/mL (≈ 2 µM)
- solubility thermodynamic [19]: 0.42 µg/mL (≈ 0.999 µM)
- solubility (physchem [20]): 0.2 µg/mL (≈ 0.476 µM)
- solubility (physchem [21]): 5.1 µg/mL (≈ 12.1 µM)
- remaining at 1 h (in vitro [22]): 93%
- remaining at 1 h (in vitro [23]): 90%
- MIC [15]: 0.06 µM (≈ 0.0252 µg/mL)
- MIC [16]: 1 µM (≈ 0.42 µg/mL)

Structure (SMILES): O=[N+]([O-])c1cn2c(n1)OC[C@@H](OCc1ccc(-c3ccc(C(F)(F)F)nc3)cc1)C2
- AUC(0-inf) [1]: 217 µg·h/mL
- Cmax [2]: 14000 ng/mL
- AUC(0-inf) [4]: 414 µg·h/mL
- Cmax [5]: 373000 ng/mL
- half-life [6]: 9.1 h
- Kp [17]: 1.9
- solubility thermodynamic [18]: 0.38 µg/mL (≈ 0.904 µM)
- solubility thermodynamic [19]: 0.17 µg/mL (≈ 0.404 µM)
- solubility (physchem [20]): 1 µg/mL (≈ 2.38 µM)
- solubility (physchem [21]): 11 µg/mL (≈ 26.2 µM)
- remaining at 1 h (in vitro [22]): 86%
- MIC [15]: 0.03 µM (≈ 0.0126 µg/mL)
- MIC [16]: 2.1 µM (≈ 0.883 µg/mL)

Structure (SMILES): COc1ccc(-c2ccc(CO[C@@H]3COc4nc([N+](=O)[O-])cn4C3)cc2)cn1
- remaining at 1 h [28]: > 50%
- solubility (physchem [20]): 4.4 µg/mL (≈ 11.5 µM)
- remaining at 1 h (in vitro [22]): 40%
- remaining at 1 h (in vitro [23]): 6%
- MIC [15]: 0.045 µM (≈ 0.0172 µg/mL)
- MIC [16]: 0.61 µM (≈ 0.233 µg/mL)

Structure (SMILES): O=[N+]([O-])c1cn2c(n1)OC[C@@H](OCc1ccc(-c3ccc(OC(F)(F)F)cc3)nc1)C2 [TBA-354]
- AUC(0-inf) [1]: 296 µg·h/mL
- Cmax [2]: 12000 ng/mL
- half-life [3]: 24 h
- AUC(0-inf) [4]: 81 µg·h/mL
- Cmax [5]: 18000 ng/mL
- half-life [6]: 2.2 h
- Cmax [7]: 3900 ng/mL
- Tmax [8]: 0.083 h
- half-life [9]: > 6 h
- AUC(0-t) [10]: 12.1 µg·h/mL
- Cmax [11]: 8100 ng/mL
- Tmax [12]: 5 h
- AUC(0-t) [13]: 30.1 µg·h/mL
- bioavailability [14]: 62%
- solubility ([18]; buffer): 45 µg/mL (≈ 103 µM)
- solubility thermodynamic [19]: < 0.1 µg/mL
- remaining at 1 h (in vitro [22]): 83%
- remaining at 1 h (in vitro [23]): 87%
- MIC [15]: 0.05 µM (≈ 0.0218 µg/mL)
- MIC [16]: 0.54 µM (≈ 0.236 µg/mL)
